Test results taken from the NIST ThermoML archive (doi:10.1016/j.jct.2012.06.018).
± gives the expanded uncertainty stated by the source.

Settings: for surface tension liquid-gas: Ring tensiometer; for viscosity / mass density: 101.33 kPa, Liquid; for viscosity: Capillary tube (Ostwald / Ubbelohde) method; for mass density: Pycnometric method

With CCCC[n+]1ccccc1C.O=S(=O)([N-]S(=O)(=O)C(F)(F)F)C(F)(F)F the surface tension liquid-gas (293.15 K) was 36.5 ± 0.6 mN/m, the viscosity (293.15 K) was 143.91 ± 15 mPa·s and the mass density (293.15 K) was 1482 ± 25 kg/m3. For the same molecule, the surface tension liquid-gas (298.15 K) was 36.3 ± 0.6 mN/m, the viscosity (298.15 K) was 95.73 ± 9.7 mPa·s and the mass density (298.15 K) was 1476 ± 25 kg/m3. For the same molecule, the surface tension liquid-gas (303.15 K) was 36.1 ± 0.6 mN/m, the viscosity (303.15 K) was 72.05 ± 7.2 mPa·s and the mass density (303.15 K) was 1459 ± 25 kg/m3. It also gave a surface tension liquid-gas (308.15 K) of 35.9 ± 0.6 mN/m, a viscosity (308.15 K) of 56.95 ± 5.7 mPa·s and a mass density (308.15 K) of 1450 ± 25 kg/m3. For the same molecule, the surface tension liquid-gas (313.15 K) was 35.5 ± 0.6 mN/m, the viscosity (313.15 K) was 45.83 ± 4.6 mPa·s and the mass density (313.15 K) was 1446 ± 25 kg/m3. The surface tension liquid-gas (318.15 K) was 35.2 ± 0.6 mN/m, the viscosity (318.15 K) was 37.39 ± 3.8 mPa·s and the mass density (318.15 K) was 1440 ± 25 kg/m3. For the same molecule, the surface tension liquid-gas (323.15 K) was 35 ± 0.6 mN/m, the viscosity (323.15 K) was 29.48 ± 3 mPa·s and the mass density (323.15 K) was 1435 ± 25 kg/m3.

CC[n+]1ccccc1.O=S(=O)([N-]S(=O)(=O)C(F)(F)F)C(F)(F)F [1-ethylpyridinium bis[(trifluoromethyl)sulfonyl]imide] showed a surface tension liquid-gas (293.15 K) of 35.6 ± 0.6 mN/m, a viscosity (293.15 K) of 47.43 ± 4.8 mPa·s and a mass density (293.15 K) of 1534 ± 25 kg/m3. For the same molecule, the surface tension liquid-gas (298.15 K) was 35.5 ± 0.6 mN/m, the viscosity (298.15 K) was 39.76 ± 4 mPa·s and the mass density (298.15 K) was 1532 ± 25 kg/m3. For the same molecule, the surface tension liquid-gas (303.15 K) was 35.4 ± 0.6 mN/m, the viscosity (303.15 K) was 33.31 ± 3.3 mPa·s and the mass density (303.15 K) was 1530 ± 25 kg/m3. For the same molecule, the surface tension liquid-gas (308.15 K) was 35.3 ± 0.6 mN/m, the viscosity (308.15 K) was 27.8 ± 2.8 mPa·s and the mass density (308.15 K) was 1528 ± 25 kg/m3. For the same molecule, the surface tension liquid-gas (313.15 K) was 35.2 ± 0.6 mN/m, the viscosity (313.15 K) was 23.39 ± 2.3 mPa·s and the mass density (313.15 K) was 1520 ± 25 kg/m3. For the same molecule, the surface tension liquid-gas (318.15 K) was 35.2 ± 0.6 mN/m, the viscosity (318.15 K) was 20.2 ± 2 mPa·s and the mass density (318.15 K) was 1519 ± 25 kg/m3. It also gave a surface tension liquid-gas (323.15 K) of 35.1 ± 0.6 mN/m, a viscosity (323.15 K) of 17.61 ± 1.8 mPa·s and a mass density (323.15 K) of 1515 ± 25 kg/m3.

In the case of CCCCCC[n+]1ccccc1.O=S(=O)([N-]S(=O)(=O)C(F)(F)F)C(F)(F)F [1-hexylpyridinium bis(trifluromethylsulfonyl)imide], the surface tension liquid-gas (293.15 K) is reported as 34.2 ± 0.6 mN/m, the viscosity (293.15 K) is reported as 275.12 ± 28 mPa·s and the mass density (293.15 K) is reported as 1386 ± 25 kg/m3. It also gave a surface tension liquid-gas (298.15 K) of 33.9 ± 0.6 mN/m, a viscosity (298.15 K) of 245.33 ± 25 mPa·s and a mass density (298.15 K) of 1382 ± 25 kg/m3. It also gave a surface tension liquid-gas (303.15 K) of 33.5 ± 0.6 mN/m, a viscosity (303.15 K) of 201.82 ± 21 mPa·s and a mass density (303.15 K) of 1379 ± 25 kg/m3. The surface tension liquid-gas (308.15 K) was 33.3 ± 0.5 mN/m, the viscosity (308.15 K) was 153.24 ± 16 mPa·s and the mass density (308.15 K) was 1373 ± 25 kg/m3. It also gave a surface tension liquid-gas (313.15 K) of 33 ± 0.5 mN/m, a viscosity (313.15 K) of 131.32 ± 13 mPa·s and a mass density (313.15 K) of 1368 ± 25 kg/m3. For the same molecule, the surface tension liquid-gas (318.15 K) was 32.8 ± 0.5 mN/m, the viscosity (318.15 K) was 105.99 ± 11 mPa·s and the mass density (318.15 K) was 1368 ± 25 kg/m3. For the same molecule, the surface tension liquid-gas (323.15 K) was 32.6 ± 0.5 mN/m, the viscosity (323.15 K) was 83.66 ± 8.4 mPa·s and the mass density (323.15 K) was 1362 ± 25 kg/m3.

CCCC[n+]1cccc(C)c1.O=S(=O)([N-]S(=O)(=O)C(F)(F)F)C(F)(F)F gave a surface tension liquid-gas (293.15 K) of 35.8 ± 0.6 mN/m, a viscosity (293.15 K) of 81.71 ± 8.2 mPa·s and a mass density (293.15 K) of 1429 ± 25 kg/m3. For the same molecule, the surface tension liquid-gas (298.15 K) was 35.5 ± 0.6 mN/m, the viscosity (298.15 K) was 64.73 ± 6.5 mPa·s and the mass density (298.15 K) was 1425 ± 25 kg/m3. It also gave a surface tension liquid-gas (303.15 K) of 35.3 ± 0.6 mN/m, a viscosity (303.15 K) of 51.42 ± 5.2 mPa·s and a mass density (303.15 K) of 1423 ± 25 kg/m3. For the same molecule, the surface tension liquid-gas (308.15 K) was 35.1 ± 0.6 mN/m, the viscosity (308.15 K) was 41.73 ± 4.2 mPa·s and the mass density (308.15 K) was 1421 ± 25 kg/m3. For the same molecule, the surface tension liquid-gas (313.15 K) was 34.8 ± 0.6 mN/m, the viscosity (313.15 K) was 33.98 ± 3.4 mPa·s and the mass density (313.15 K) was 1420 ± 25 kg/m3. For the same molecule, the surface tension liquid-gas (318.15 K) was 34.6 ± 0.6 mN/m, the viscosity (318.15 K) was 29.05 ± 2.9 mPa·s and the mass density (318.15 K) was 1419 ± 25 kg/m3. For the same molecule, the surface tension liquid-gas (323.15 K) was 34.4 ± 0.6 mN/m, the viscosity (323.15 K) was 25.68 ± 2.6 mPa·s and the mass density (323.15 K) was 1416 ± 25 kg/m3.

In the case of CCCC[n+]1ccccc1.O=S(=O)([N-]S(=O)(=O)C(F)(F)F)C(F)(F)F [1-butylpyridinium bis[(trifluoromethyl)sulfonyl]imide], the surface tension liquid-gas (293.15 K) is reported as 35 ± 0.6 mN/m, the viscosity (293.15 K) is reported as 75.61 ± 7.6 mPa·s and the mass density (293.15 K) is reported as 1462 ± 25 kg/m3. The surface tension liquid-gas (298.15 K) was 34.8 ± 0.6 mN/m, the viscosity (298.15 K) was 60.55 ± 6.1 mPa·s and the mass density (298.15 K) was 1456 ± 25 kg/m3. The surface tension liquid-gas (303.15 K) was 34.5 ± 0.6 mN/m, the viscosity (303.15 K) was 48.11 ± 4.8 mPa·s and the mass density (303.15 K) was 1445 ± 25 kg/m3. The surface tension liquid-gas (308.15 K) was 34.4 ± 0.6 mN/m, the viscosity (308.15 K) was 38.08 ± 3.8 mPa·s and the mass density (308.15 K) was 1441 ± 25 kg/m3. It also gave a surface tension liquid-gas (313.15 K) of 34.3 ± 0.6 mN/m, a viscosity (313.15 K) of 32.37 ± 3.2 mPa·s and a mass density (313.15 K) of 1439 ± 25 kg/m3. It also gave a surface tension liquid-gas (318.15 K) of 34.2 ± 0.6 mN/m, a viscosity (318.15 K) of 27.62 ± 2.8 mPa·s and a mass density (318.15 K) of 1437 ± 25 kg/m3. The surface tension liquid-gas (323.15 K) was 34.1 ± 0.6 mN/m, the viscosity (323.15 K) was 22.75 ± 2.3 mPa·s and the mass density (323.15 K) was 1433 ± 25 kg/m3.

In the case of CCCC[n+]1cccc(C)c1.O=S(=O)([O-])C(F)(F)F [1-butyl-3-methylpyridinium trifluoromethanesulfonate], the surface tension liquid-gas (293.15 K) is reported as 38.6 ± 0.6 mN/m, the viscosity (293.15 K) is reported as 142.15 ± 14 mPa·s and the mass density (293.15 K) is reported as 1306 ± 25 kg/m3. The surface tension liquid-gas (298.15 K) was 38.2 ± 0.6 mN/m, the viscosity (298.15 K) was 126.57 ± 13 mPa·s and the mass density (298.15 K) was 1297 ± 25 kg/m3. For the same molecule, the surface tension liquid-gas (303.15 K) was 37.5 ± 0.6 mN/m, the viscosity (303.15 K) was 101.27 ± 10 mPa·s and the mass density (303.15 K) was 1291 ± 25 kg/m3. It also gave a surface tension liquid-gas (308.15 K) of 37.1 ± 0.6 mN/m, a viscosity (308.15 K) of 78.04 ± 7.8 mPa·s and a mass density (308.15 K) of 1285 ± 25 kg/m3. For the same molecule, the surface tension liquid-gas (313.15 K) was 36.9 ± 0.6 mN/m, the viscosity (313.15 K) was 60.98 ± 6.1 mPa·s and the mass density (313.15 K) was 1275 ± 25 kg/m3. For the same molecule, the surface tension liquid-gas (318.15 K) was 36.6 ± 0.6 mN/m, the viscosity (318.15 K) was 48.9 ± 4.9 mPa·s and the mass density (318.15 K) was 1270 ± 25 kg/m3. For the same molecule, the surface tension liquid-gas (323.15 K) was 36.2 ± 0.6 mN/m, the viscosity (323.15 K) was 37.94 ± 3.8 mPa·s and the mass density (323.15 K) was 1251 ± 25 kg/m3.

CCCC[n+]1ccc(C)cc1.O=S(=O)([N-]S(=O)(=O)C(F)(F)F)C(F)(F)F gave a surface tension liquid-gas (293.15 K) of 35.4 ± 0.6 mN/m, a viscosity (293.15 K) of 65.26 ± 6.5 mPa·s and a mass density (293.15 K) of 1419 ± 25 kg/m3. It also gave a surface tension liquid-gas (298.15 K) of 35 ± 0.6 mN/m, a viscosity (298.15 K) of 54.41 ± 5.5 mPa·s and a mass density (298.15 K) of 1413 ± 25 kg/m3. The surface tension liquid-gas (303.15 K) was 34.7 ± 0.6 mN/m, the viscosity (303.15 K) was 44.42 ± 4.5 mPa·s and the mass density (303.15 K) was 1412 ± 25 kg/m3. The surface tension liquid-gas (308.15 K) was 34.5 ± 0.6 mN/m, the viscosity (308.15 K) was 36.12 ± 3.6 mPa·s and the mass density (308.15 K) was 1411 ± 25 kg/m3. The surface tension liquid-gas (313.15 K) was 34.2 ± 0.6 mN/m, the viscosity (313.15 K) was 29.81 ± 3 mPa·s and the mass density (313.15 K) was 1410 ± 25 kg/m3. The surface tension liquid-gas (318.15 K) was 34 ± 0.6 mN/m, the viscosity (318.15 K) was 25.18 ± 2.5 mPa·s and the mass density (318.15 K) was 1409 ± 25 kg/m3. For the same molecule, the surface tension liquid-gas (323.15 K) was 33.8 ± 0.6 mN/m, the viscosity (323.15 K) was 20.23 ± 2 mPa·s and the mass density (323.15 K) was 1405 ± 25 kg/m3.

In the case of CCCC[n+]1cccc(C)c1.F[B-](F)(F)F [1-butyl-3-methylpyridinium tetrafluoroborate], the surface tension liquid-gas (293.15 K) is reported as 47.5 ± 0.7 mN/m, the viscosity (293.15 K) is reported as 226.15 ± 23 mPa·s and the mass density (293.15 K) is reported as 1189 ± 25 kg/m3. For the same molecule, the surface tension liquid-gas (298.15 K) was 47.1 ± 0.7 mN/m, the viscosity (298.15 K) was 169.51 ± 17 mPa·s and the mass density (298.15 K) was 1177 ± 25 kg/m3. It also gave a surface tension liquid-gas (303.15 K) of 45.8 ± 0.7 mN/m, a viscosity (303.15 K) of 129.06 ± 13 mPa·s and a mass density (303.15 K) of 1172 ± 25 kg/m3. For the same molecule, the surface tension liquid-gas (308.15 K) was 45.6 ± 0.7 mN/m, the viscosity (308.15 K) was 97.03 ± 9.8 mPa·s and the mass density (308.15 K) was 1168 ± 25 kg/m3. The surface tension liquid-gas (313.15 K) was 45.3 ± 0.7 mN/m, the viscosity (313.15 K) was 73.35 ± 7.4 mPa·s and the mass density (313.15 K) was 1166 ± 25 kg/m3. For the same molecule, the surface tension liquid-gas (318.15 K) was 44.9 ± 0.7 mN/m, the viscosity (318.15 K) was 59.05 ± 5.9 mPa·s and the mass density (318.15 K) was 1163 ± 25 kg/m3. It also gave a surface tension liquid-gas (323.15 K) of 44.4 ± 0.7 mN/m, a viscosity (323.15 K) of 46.59 ± 4.7 mPa·s and a mass density (323.15 K) of 1160 ± 25 kg/m3.
